Among the data in patent publication US20070142437A1, “CHEMICAL COMPOUNDS” (priority 2005, published 2007) are IC50 values, retold here.

This assay has as its system HUVEC cells. Put plainly: Human Umbilical Vein Endothelial Cell (HUVEC) proliferation assay (BrdU incorporation). Format: cell-based. The settings on record: growth stimulated with VEGF, 72 hrs, read-out: Inhibition of HUVEC proliferation IC50. How it is done:
Human Umbilical Vein Endothelial Cell (HUVEC) Proliferation Assay (BrdU Incorporation) Materials
HUVEC cells and EGM-MV (Endothelial cell growth medium—microvascular) were purchased from Clonetics (San Diego, Calif.). VEGF and bFGF were purchased from R&D Systems (Minneapolis, Minn.). Anti-BrdU antibody was obtained from Chemicon International (Temecula, Calif.).
HUVECs were routinely maintained in EGM-MV medium and were used within passage 7. HUVECs were plated at a density of 2500 cells/well in M199 medium containing 5% FBS (Hyclone) in type I collagen coated plate (Becton Dickinson). The plate was incubated at 37° C. overnight. The medium was removed by aspiration, and test compounds were added to each well in a volume of 0.1 ml/well in serum-free M199 medium. Compound concentrations ranged from 1.5 nM to 30 micromolar. The plate was incubated for 30 min at 37° C. Another 0.1 ml of serum-free M199 medium containing BSA and VEGF (or bFGF) was added to give a final concentration of 0.1% BSA and 10 ng/ml VEGF (0.3 ng/ml bFGF). The plate was incubated at 37° C. for 72 hrs. BrdU was added to each well after the first 48 hrs to give a concentration of 10 micromolar. The colorimetric ELISA assay was performed according to manufacturer's (Roche Molecular Sciences) instructions, with detection by absorbance reading at 450 nm. Results were plotted as concentration of test compound vs. absorbance to give an IC50 value for inhibition of BrdU incorporation.
Background: Uptake of a labelled nucleoside into DNA is a usual measure of proliferation.
`CNS(=O)(=O)Cc1ccc(Nc2ncc(-c3ccccc3)o2)cc1` [Example 51, N-methyl-1-{4-[(5-phenyl-1,3-oxazol-2-yl)amino]phenyl}methanesulfonamide]: the IC50 was under 1000 nM.
Next, `CCS(=O)(=O)c1ccc(OC)c(Nc2ncc(-c3ccccc3)o2)c1` [Example 56, N-[5-(ethylsulfonyl)-2-methoxyphenyl]-5-phenyl-1,3-oxazol-2-amine]: under 500 nM; `COc1ccc(S(=O)(=O)N(C)C)cc1Nc1ncc(-c2ccc(F)cc2)o1` [Example 70, 3-{[5-(4-fluorophenyl)-1,3-oxazol-2-yl]amino}-4-methoxy-N,N-dimethylbenzenesulfonamide]: under 500 nM.
Turning to `COc1cc(Nc2ncc(-c3ccccc3)o2)cc(OC)c1OC` [Example 74, 5-phenyl-N-(3,4,5-trimethoxyphenyl)-1,3-oxazol-2-amine], the IC50 is under 500 nM.
With `COc1ccc(CS(C)(=O)=O)cc1Nc1ncc(-c2ccc(F)cc2)o1` [Example 82, 5-(4-fluorophenyl)-N-{2-methoxy-5-[(methylsulfonyl)methyl]phenyl}-1,3-oxazol-2-amine] the figure was under 1000 nM; with `COc1ccc(S(=O)(=O)NCc2ccccn2)cc1Nc1ncc(-c2ccc(F)cc2)o1` [Example 86, 3-{[5-(4-fluorophenyl)-1,3-oxazol-2-yl]amino}-4-methoxy-N-(pyridin-2-ylmethyl)benzenesulfonamide], under 500 nM; with `COc1ccc(S(N)(=O)=O)cc1Nc1ncc(-c2ccc(F)cc2)o1` [Example 89, 3-{[5-(4-fluorophenyl)-1,3-oxazol-2-yl]amino}-4-methoxybenzenesulfonamide], under 1000 nM.
Next, `CCC(CC)S(=O)(=O)c1ccc(OC)c(Nc2ncc(-c3ccc(F)cc3)o2)c1` [Example 90, N-{5-[(1-ethylpropyl)sulfonyl]-2-methoxyphenyl}-5-(4-fluorophenyl)-1,3-oxazol-2-amine]: under 1000 nM.
Consider `COc1ccc(S(=O)(=O)CC(C)C)cc1Nc1ncc(-c2ccc(F)cc2)o1` [Example 93, 5-(4-fluorophenyl)-N-[5-(isobutylsulfonyl)-2-methoxyphenyl]-1,3-oxazol-2-amine], for which the IC50 is under 1000 nM.
Next, `COc1ccc(S(=O)(=O)CC2CCCO2)cc1Nc1ncc(-c2ccc(F)cc2)o1` (centres unmarked) [Example 94, 5-(4-fluorophenyl)-N-{2-methoxy-5-[(tetrahydrofuran-2-ylmethyl)sulfonyl]phenyl}-1,3-oxazol-2-amine]: under 1000 nM; `COc1ccc(S(=O)(=O)C2CCOC2)cc1Nc1ncc(-c2ccc(F)cc2)o1` (centres unmarked) [Example 95, 5-(4-fluorophenyl)-N-[2-methoxy-5-(tetrahydrofuran-3-ylsulfonyl)phenyl]-1,3-oxazol-2-amine]: under 1000 nM; `COc1ccc(S(=O)(=O)C(C)C)cc1Nc1ncc(-c2ccc(F)cc2)o1` [Example 97, 5-(4-fluorophenyl)-N-[5-(isopropylsulfonyl)-2-methoxyphenyl]-1,3-oxazol-2-amine]: under 500 nM.
With `CCS(=O)(=O)c1ccc(OC)c(Nc2ncc(-c3cccc(Br)c3)o2)c1` [Example 100, 5-(3-bromophenyl)-N-[5-(ethylsulfonyl)-2-methoxyphenyl]-1,3-oxazol-2-amine] the figure was under 1000 nM; with `CCS(=O)(=O)c1ccc(OC)c(Nc2ncc(-c3ccc(F)cc3)o2)c1` [Example 109, N-[5-(ethylsulfonyl)-2-methoxyphenyl]-5-(4-fluorophenyl)-1,3-oxazol-2-amine], under 500 nM; with `CCS(=O)(=O)c1ccc(OC)c(Nc2ncc(-c3ccc(F)c(F)c3)o2)c1` [Example 110, 5-(3,4-difluorophenyl)-N-[5-(ethylsulfonyl)-2-methoxyphenyl]-1,3-oxazol-2-amine], under 1000 nM.
As to `COc1cc(Nc2ncc(-c3ccc(F)cc3)o2)cc(OC)c1OC` [Example 116, 5-(4-fluorophenyl)-N-(3,4,5-trimethoxyphenyl)-1,3-oxazol-2-amine], the IC50 was under 1000 nM.
On to `COc1ccc(S(=O)(=O)NCc2ccncc2)cc1Nc1ncc(-c2ccc(F)cc2)o1` [Example 122, 3-{[5-(4-fluorophenyl)-1,3-oxazol-2-yl]amino}-4-methoxy-N-(pyridin-4-ylmethyl)benzenesulfonamide], for which the IC50 is under 1000 nM.
Next, `COc1ccc(S(=O)(=O)NC(C)C)cc1Nc1ncc(-c2ccc(F)cc2)o1` [Example 123, 3-{[5-(4-fluorophenyl)-1,3-oxazol-2-yl]amino}-N-isopropyl-4-methoxybenzenesulfonamide]: under 1000 nM; `COc1ccc(S(=O)(=O)NCC2CCCO2)cc1Nc1ncc(-c2ccc(F)cc2)o1` (centres unmarked) [Example 124, 3-{[5-(4-fluorophenyl)-1,3-oxazol-2-yl]amino}-4-methoxy-N-(tetrahydrofuran-2-ylmethyl)benzenesulfonamide]: under 1000 nM.
Next, `COCCCNS(=O)(=O)c1ccc(OC)c(Nc2ncc(-c3ccc(F)cc3)o2)c1` [Example 129, 3-{[5-(4-fluorophenyl)-1,3-oxazol-2-yl]amino}-4-methoxy-N-(3-methoxypropyl)benzenesulfonamide]: under 1000 nM.
Next, `CNS(=O)(=O)c1ccc(OC)c(Nc2ncc(-c3ccc(F)cc3)o2)c1` [Example 130, 3-{[5-(4-fluorophenyl)-1,3-oxazol-2-yl]amino}-4-methoxy-N-methylbenzenesulfonamide]: under 1000 nM.
As for `CCS(=O)(=O)c1ccc(OC)c(Nc2ncc(-c3ccc(Cl)cc3)o2)c1` [Example 132, 5-(4-chlorophenyl)-N-[5-(ethylsulfonyl)-2-methoxyphenyl]-1,3-oxazol-2-amine], the IC50 is under 1000 nM.
In the case of `CCS(=O)(=O)c1ccc(OC)c(Nc2ncc(-c3ccc(C#N)cc3)o2)c1` [Example 133, 4-(2-{[5-(ethylsulfonyl)-2-methoxyphenyl]amino}-1,3-oxazol-5-yl)benzonitrile], the IC50 is under 500 nM.
In the case of `CCS(=O)(=O)c1ccc(OC)c(Nc2ncc(-c3ccc(C(N)=O)cc3)o2)c1` [Example 134], the IC50 was under 500 nM.
With `CCS(=O)(=O)c1ccc(OC)c(Nc2ncc(-c3cccc(Cl)c3)o2)c1` [Example 137, 5-(3-chlorophenyl)-N-[5-(ethylsulfonyl)-2-methoxyphenyl]-1,3-oxazol-2-amine] the figure was under 1000 nM.
With `CCS(=O)(=O)c1ccc(OC)c(Nc2ncc(-c3cccc(F)c3)o2)c1` [Example 141, N-[5-(ethylsulfonyl)-2-methoxyphenyl]-5-(3-fluorophenyl)-1,3-oxazol-2-amine] the figure was under 500 nM; with `CCS(=O)(=O)c1ccc(OC)c(Nc2ncc(-c3ccc4c(c3)OCCO4)o2)c1` [Example 148, 5-(Z,3-dihydro-1,4-benzodioxin-6-yl)-N-[5-(ethylsulfonyl)-2-methoxyphenyl]-1,3-oxazol-2-amine], under 1000 nM; with `CCS(=O)(=O)c1ccc(OC)c(Nc2ncc(-c3ccc4c(c3)OCCCO4)o2)c1` [Example 153, 5-(3,4-dihydro-2H-1,5-benzodioxepin-7-yl)-N-[5-(ethylsulfonyl)-2-methoxyphenyl]-1,3-oxazol-2-amine], under 1000 nM.
Next, `CCS(=O)(=O)c1ccc(OC)c(Nc2ncc(-c3cccc(O)c3)o2)c1` [Example 158]: under 1000 nM.
